Data on two compounds can be found in BindingDB's records for doi:10.1021/jm00098a008 (University of Minnesota, 1992).

SMILES strings stand for the structures.

The target of the assay is Alcohol dehydrogenase 1 (Saccharomyces cerevisiae) (UniProt P00330). Briefly: Inhibitory activity against yeast alcohol dehydrogenase.
Chain of Alcohol dehydrogenase 1 (Saccharomyces cerevisiae) (P00330 whole entry, looked up): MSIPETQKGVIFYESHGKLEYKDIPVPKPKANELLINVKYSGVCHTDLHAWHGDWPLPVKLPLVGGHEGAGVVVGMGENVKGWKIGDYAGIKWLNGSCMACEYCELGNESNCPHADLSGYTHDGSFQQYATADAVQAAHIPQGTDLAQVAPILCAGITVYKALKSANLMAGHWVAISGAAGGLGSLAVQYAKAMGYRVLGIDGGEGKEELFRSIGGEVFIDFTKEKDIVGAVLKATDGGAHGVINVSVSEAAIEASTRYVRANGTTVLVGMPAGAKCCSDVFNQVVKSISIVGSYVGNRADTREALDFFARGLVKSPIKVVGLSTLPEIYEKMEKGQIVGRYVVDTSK

`N#CN(OC(=O)c1ccccc1)C(=O)c1ccccc1` had a 50% inhibitory concentration (IC50) of 25 µM. Compound `CC(=O)ON(C(C)=O)S(=O)(=O)c1ccc(Cl)cc1` returned a half-maximal inhibitory concentration (IC50) of 39 µM.

A word on the IC50: it is the point on the concentration scale where inhibition reaches its midpoint.
